Experimental data: patent publication US6841519B1, “Isoxazoline derivatives and herbicides containing the same as the active ingredient” (Kumiai Chemical Industry Co., Ltd., priority 1999, dated 2005)

What was measured:
Format in all cases: in vivo
[1] = system: Echinochloa crus-galli (L.) Beauv. var. crusgall (Ec); assay: Test for herbicidal effect by upland field soil treatment (Test Example 2), Ec; conditions: application amount (active ingredient) 100 g/10 a, examined at the 21st day from the treatment, index per Table 40
Description: (§1) [table] <Test Example 2> Test For Herbicidal Effect By Upland Field Soil Treatment An upland field soil was filed in a plastic pot of 80 cm^2. Seeds of Echinochloa crus-galli (L.) Beauv. var. crusgall (Ec) and Setaria viridis (L.) Beauv. (Se) were sowed, followed by covering with the same soil. Wettable powders produced in accordance with the Formulation 1 were diluted with water and sprayed uniformly: on the soil surface using a small sprayer, in an amount of 100 liters per 10 ares so that the amount of each active ingredient became 100 g per 10 ares. Then, breeding was made in a greenhouse, and the herbicidal effect of each wettable powder was examined at the 21st day from the treatment in accordance with the standard shown in Table 40.

[2] = system: Echinochloa crus-galli (L.) Beauv. var. crusgalli (Ec); assay: Test for herbicidal effect by upland foliage treatment (Test Example 3); conditions: 100 g/10 a active ingredient, examined at 14th day
Description: Test For Herbicidal Effect By Upland Foliage Treatment
An upland field soil was filed in a plastic pot of 80 cm^2. Seeds of Echinochloa crus-galli (L.) Beauv. var. crusgalli (Ec) were sowed. Breeding was made in a greenhouse for 2 weeks. Wettable powders produced in accordance with the Formulation 1 were diluted with water and sprayed on the whole foliage of plants from above the plants using a small sprayer in an amount of 100 liters per 10 ares so that the amount of each active ingredient became 100 g per 10 ares. Then, breeding was made in the greenhouse, and the herbicidal effect of each wettable powder was examined at the 14th day from the treatment in accordance with the standard shown in Table 40.

[3] = system: Echinochloa oryzicola Vasing. (Eo); assay: Test for herbicidal effect by paddy field soil treatment (Test Example 1); conditions: application amount (active ingredient) 100 g/10 a, examined at the 21st day from the treatment, index per Table 40
Description: <Test Example 1> Test For Herbicidal Effect By Paddy Field Soil Treatment A paddy field soil was filled in a plastic pot of 100 cm^2 and subjected to puddling. Then, seeds of Echinochloa oryzicola Vasing. (Eo) were sowed and water was filled in a depth of 3 cm. Next day, wettable powders produced in accordance with the Formulation 1 were diluted with water and dropped on the water surface. The application amount of each wettable powder was 100 g per 10 ares in terms of the active ingredient. Then, breeding was made in a greenhouse, and the herbicidal effect of each wettable powder was examined at the 21st day from the treatment in accordance with the standard shown in Table 40. [table]

[4] = system: Setaria viridis (L.) Beauv. (Se); assay: Test for herbicidal effect by upland field soil treatment (Test Example 2), Se; conditions: application amount (active ingredient) 100 g/10 a, examined at the 21st day from the treatment, index per Table 40
Description: as §1

| SMILES | Herbicidal effect to Ec [1] | Herbicidal effect to Ec [2] | Herbicidal effect to Eo [3] | Herbicidal effect to Se [4] |
| --- | --- | --- | --- | --- |
| CC1(C)CC(S(=O)(=O)Cc2cccc(Cl)c2)=NO1 [Compound 1-3] | 5 (A herbicidal effect or phytotoxicity of 90% or more) | 4 (A herbicidal effect or phytotoxicity of 70% to less than 90%) | 5 (A herbicidal effect or phytotoxicity of 90% or more) | 5 (A herbicidal effect or phytotoxicity of 90% or more) |
| CC1(C)CC(S(=O)(=O)Cc2ccc(Cl)cc2)=NO1 [Compound 1-4] | 5 (A herbicidal effect or phytotoxicity of 90% or more) | 4 (A herbicidal effect or phytotoxicity of 70% to less than 90%) | 5 (A herbicidal effect or phytotoxicity of 90% or more) | 5 (A herbicidal effect or phytotoxicity of 90% or more) |
| Cc1ccccc1CS(=O)(=O)C1=NOC(C)(C)C1 [Compound 1-5] | 5 (A herbicidal effect or phytotoxicity of 90% or more) | 5 (A herbicidal effect or phytotoxicity of 90% or more) | 5 (A herbicidal effect or phytotoxicity of 90% or more) | 5 (A herbicidal effect or phytotoxicity of 90% or more) |
| Cc1cccc(CS(=O)(=O)C2=NOC(C)(C)C2)c1 [Compound 1-6] | 5 (A herbicidal effect or phytotoxicity of 90% or more) | 4 (A herbicidal effect or phytotoxicity of 70% to less than 90%) | 5 (A herbicidal effect or phytotoxicity of 90% or more) | 5 (A herbicidal effect or phytotoxicity of 90% or more) |
| Cc1ccc(CS(=O)(=O)C2=NOC(C)(C)C2)cc1 [Compound 1-7] | 5 (A herbicidal effect or phytotoxicity of 90% or more) | 4 (A herbicidal effect or phytotoxicity of 70% to less than 90%) | 5 (A herbicidal effect or phytotoxicity of 90% or more) | 5 (A herbicidal effect or phytotoxicity of 90% or more) |
| CC1(C)CC(S(=O)(=O)Cc2ccccc2F)=NO1 [Compound 1-32] | 5 (A herbicidal effect or phytotoxicity of 90% or more) | 5 (A herbicidal effect or phytotoxicity of 90% or more) | 5 (A herbicidal effect or phytotoxicity of 90% or more) | 5 (A herbicidal effect or phytotoxicity of 90% or more) |
| CC1(C)CC(S(=O)(=O)Cc2ccccc2Br)=NO1 [Compound 1-35] | 5 (A herbicidal effect or phytotoxicity of 90% or more) | 4 (A herbicidal effect or phytotoxicity of 70% to less than 90%) | 5 (A herbicidal effect or phytotoxicity of 90% or more) | 5 (A herbicidal effect or phytotoxicity of 90% or more) |
| COc1ccccc1CS(=O)(=O)C1=NOC(C)(C)C1 [Compound 1-40] | 5 (A herbicidal effect or phytotoxicity of 90% or more) | 5 (A herbicidal effect or phytotoxicity of 90% or more) | 5 (A herbicidal effect or phytotoxicity of 90% or more) | 5 (A herbicidal effect or phytotoxicity of 90% or more) |
| CCOc1ccccc1CS(=O)(=O)C1=NOC(C)(C)C1 [Compound 1-43] | 5 (A herbicidal effect or phytotoxicity of 90% or more) | 5 (A herbicidal effect or phytotoxicity of 90% or more) | 5 (A herbicidal effect or phytotoxicity of 90% or more) | 5 (A herbicidal effect or phytotoxicity of 90% or more) |
| CC1(C)CC(S(=O)(=O)Cc2ccccc2OC(F)F)=NO1 [Compound 1-55] | 5 (A herbicidal effect or phytotoxicity of 90% or more) | 4 (A herbicidal effect or phytotoxicity of 70% to less than 90%) | 5 (A herbicidal effect or phytotoxicity of 90% or more) | 5 (A herbicidal effect or phytotoxicity of 90% or more) |
| CC1(C)CC(S(=O)(=O)Cc2cccc(OC(F)F)c2)=NO1 [Compound 1-56] | 5 (A herbicidal effect or phytotoxicity of 90% or more) | 5 (A herbicidal effect or phytotoxicity of 90% or more) | 5 (A herbicidal effect or phytotoxicity of 90% or more) | 5 (A herbicidal effect or phytotoxicity of 90% or more) |
| CC1(C)CC(S(=O)(=O)Cc2cccc(OC(F)(F)F)c2)=NO1 [Compound 1-59] | 5 (A herbicidal effect or phytotoxicity of 90% or more) | 5 (A herbicidal effect or phytotoxicity of 90% or more) | 5 (A herbicidal effect or phytotoxicity of 90% or more) | 5 (A herbicidal effect or phytotoxicity of 90% or more) |
| CC1(C)CC(S(=O)(=O)Cc2ccccc2S(C)(=O)=O)=NO1 [Compound 1-106] | 5 (A herbicidal effect or phytotoxicity of 90% or more) | 4 (A herbicidal effect or phytotoxicity of 70% to less than 90%) | 5 (A herbicidal effect or phytotoxicity of 90% or more) | 5 (A herbicidal effect or phytotoxicity of 90% or more) |
| CC1(C)CC(S(=O)(=O)Cc2ccccc2C#N)=NO1 [Compound 1-139] | 5 (A herbicidal effect or phytotoxicity of 90% or more) | 4 (A herbicidal effect or phytotoxicity of 70% to less than 90%) | 5 (A herbicidal effect or phytotoxicity of 90% or more) | 5 (A herbicidal effect or phytotoxicity of 90% or more) |
| CC1(C)CC(S(=O)(=O)Cc2ccccc2[N+](=O)[O-])=NO1 [Compound 1-142] | 5 (A herbicidal effect or phytotoxicity of 90% or more) | 4 (A herbicidal effect or phytotoxicity of 70% to less than 90%) | 5 (A herbicidal effect or phytotoxicity of 90% or more) | 5 (A herbicidal effect or phytotoxicity of 90% or more) |
| CC1(C)CC(S(=O)(=O)Cc2cccc(C(F)(F)F)c2)=NO1 [Compound 1-158] | 5 (A herbicidal effect or phytotoxicity of 90% or more) | 5 (A herbicidal effect or phytotoxicity of 90% or more) | 5 (A herbicidal effect or phytotoxicity of 90% or more) | 5 (A herbicidal effect or phytotoxicity of 90% or more) |
| COCc1ccccc1CS(=O)(=O)C1=NOC(C)(C)C1 [Compound 1-160] | 5 (A herbicidal effect or phytotoxicity of 90% or more) | 5 (A herbicidal effect or phytotoxicity of 90% or more) | 5 (A herbicidal effect or phytotoxicity of 90% or more) | 5 (A herbicidal effect or phytotoxicity of 90% or more) |
| CC1(C)CC(S(=O)(=O)Cc2cccc(Cl)c2F)=NO1 [Compound 1-184] | 5 (A herbicidal effect or phytotoxicity of 90% or more) | 4 (A herbicidal effect or phytotoxicity of 70% to less than 90%) | 5 (A herbicidal effect or phytotoxicity of 90% or more) | 4 (A herbicidal effect or phytotoxicity of 70% to less than 90%) |
| Cc1cccc(C)c1CS(=O)(=O)C1=NOC(C)(C)C1 [Compound 1-185] | 5 (A herbicidal effect or phytotoxicity of 90% or more) | 5 (A herbicidal effect or phytotoxicity of 90% or more) | 5 (A herbicidal effect or phytotoxicity of 90% or more) | 5 (A herbicidal effect or phytotoxicity of 90% or more) |
| CCOc1c(C)cccc1CS(=O)(=O)C1=NOC(C)(C)C1 [Compound 1-186] | 5 (A herbicidal effect or phytotoxicity of 90% or more) | 5 (A herbicidal effect or phytotoxicity of 90% or more) | 5 (A herbicidal effect or phytotoxicity of 90% or more) | 5 (A herbicidal effect or phytotoxicity of 90% or more) |
| Cc1cccc(CS(=O)(=O)C2=NOC(C)(C)C2)c1F [Compound 1-187] | 5 (A herbicidal effect or phytotoxicity of 90% or more) | 5 (A herbicidal effect or phytotoxicity of 90% or more) | 5 (A herbicidal effect or phytotoxicity of 90% or more) | 5 (A herbicidal effect or phytotoxicity of 90% or more) |
